The results in this text go back to the supplement of paper PMC12076712.

By pIC50 is commonly meant −log10 of the IC50, conventionally taken in molar units.

Common to all, as to test: pIC50, kinobeads binding competition
The target in one assay is UniProt P49840. The method, boiled down: (§1)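 To obtain pIC50, fold changes versus vehicle were fitted to logistic dose-response curves (R drc package) across biological duplicates. Protein binding to Kinobeads was quantified by TMT10 LC-MS/MS of digested bead-bound proteins. Treatments used nine concentrations with a top of 30 μM, applied to live Jurkat cells in 1:4 steps for 60 min at 37 °C before lysis, or to Jurkat lysate or a 1:1:1:1 HEK293/K-562/HepG2/placenta lysate mix in 1:5 steps for 60 min at 4 °C.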
UniProt P49840, sequence (P49840 whole entry, looked up): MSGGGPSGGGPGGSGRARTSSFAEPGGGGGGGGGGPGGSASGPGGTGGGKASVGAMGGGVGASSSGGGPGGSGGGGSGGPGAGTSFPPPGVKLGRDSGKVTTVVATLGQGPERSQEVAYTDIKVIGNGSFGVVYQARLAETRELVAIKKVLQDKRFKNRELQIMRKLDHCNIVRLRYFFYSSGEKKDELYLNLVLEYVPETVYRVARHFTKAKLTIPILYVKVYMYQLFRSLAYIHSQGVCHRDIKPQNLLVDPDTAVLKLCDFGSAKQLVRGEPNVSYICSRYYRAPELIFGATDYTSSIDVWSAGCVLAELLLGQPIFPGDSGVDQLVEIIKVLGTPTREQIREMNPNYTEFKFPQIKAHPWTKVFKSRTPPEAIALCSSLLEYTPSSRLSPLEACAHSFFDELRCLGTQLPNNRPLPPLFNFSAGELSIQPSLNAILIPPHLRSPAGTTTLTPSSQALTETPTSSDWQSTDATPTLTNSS

For a further assay, the target named is NEK7 (UniProt Q8TDX7). Summed up:
as §1

A further assay has as its target T1, MAP4K3 (UniProt Q8IVH8).
T1 sequence (whole entry): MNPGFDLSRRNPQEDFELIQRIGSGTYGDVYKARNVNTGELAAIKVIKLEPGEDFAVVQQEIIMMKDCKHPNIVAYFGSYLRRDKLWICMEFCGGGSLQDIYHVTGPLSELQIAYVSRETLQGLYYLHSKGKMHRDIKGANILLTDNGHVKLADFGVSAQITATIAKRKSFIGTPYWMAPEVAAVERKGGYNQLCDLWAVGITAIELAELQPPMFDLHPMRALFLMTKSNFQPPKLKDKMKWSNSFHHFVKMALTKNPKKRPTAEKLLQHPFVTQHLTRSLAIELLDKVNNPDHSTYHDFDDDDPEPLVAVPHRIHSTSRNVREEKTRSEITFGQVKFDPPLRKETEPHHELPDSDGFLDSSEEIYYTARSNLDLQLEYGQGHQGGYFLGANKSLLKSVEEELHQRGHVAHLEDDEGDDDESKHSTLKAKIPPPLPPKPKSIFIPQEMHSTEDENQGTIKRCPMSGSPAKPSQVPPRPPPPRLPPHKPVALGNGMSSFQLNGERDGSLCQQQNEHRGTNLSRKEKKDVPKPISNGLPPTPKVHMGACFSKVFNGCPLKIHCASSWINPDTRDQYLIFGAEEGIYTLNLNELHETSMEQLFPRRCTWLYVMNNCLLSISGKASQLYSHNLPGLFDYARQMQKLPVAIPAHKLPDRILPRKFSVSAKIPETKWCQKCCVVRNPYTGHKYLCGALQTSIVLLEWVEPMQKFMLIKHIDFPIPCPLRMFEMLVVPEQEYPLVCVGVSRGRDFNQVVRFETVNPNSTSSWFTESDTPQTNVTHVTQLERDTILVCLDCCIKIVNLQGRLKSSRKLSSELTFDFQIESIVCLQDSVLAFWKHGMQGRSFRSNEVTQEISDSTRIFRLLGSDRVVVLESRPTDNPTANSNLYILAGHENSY
The method, boiled down:
as §1

Another assay deals with T2, EPHB3 (UniProt P54753).
T2 sequence (whole entry): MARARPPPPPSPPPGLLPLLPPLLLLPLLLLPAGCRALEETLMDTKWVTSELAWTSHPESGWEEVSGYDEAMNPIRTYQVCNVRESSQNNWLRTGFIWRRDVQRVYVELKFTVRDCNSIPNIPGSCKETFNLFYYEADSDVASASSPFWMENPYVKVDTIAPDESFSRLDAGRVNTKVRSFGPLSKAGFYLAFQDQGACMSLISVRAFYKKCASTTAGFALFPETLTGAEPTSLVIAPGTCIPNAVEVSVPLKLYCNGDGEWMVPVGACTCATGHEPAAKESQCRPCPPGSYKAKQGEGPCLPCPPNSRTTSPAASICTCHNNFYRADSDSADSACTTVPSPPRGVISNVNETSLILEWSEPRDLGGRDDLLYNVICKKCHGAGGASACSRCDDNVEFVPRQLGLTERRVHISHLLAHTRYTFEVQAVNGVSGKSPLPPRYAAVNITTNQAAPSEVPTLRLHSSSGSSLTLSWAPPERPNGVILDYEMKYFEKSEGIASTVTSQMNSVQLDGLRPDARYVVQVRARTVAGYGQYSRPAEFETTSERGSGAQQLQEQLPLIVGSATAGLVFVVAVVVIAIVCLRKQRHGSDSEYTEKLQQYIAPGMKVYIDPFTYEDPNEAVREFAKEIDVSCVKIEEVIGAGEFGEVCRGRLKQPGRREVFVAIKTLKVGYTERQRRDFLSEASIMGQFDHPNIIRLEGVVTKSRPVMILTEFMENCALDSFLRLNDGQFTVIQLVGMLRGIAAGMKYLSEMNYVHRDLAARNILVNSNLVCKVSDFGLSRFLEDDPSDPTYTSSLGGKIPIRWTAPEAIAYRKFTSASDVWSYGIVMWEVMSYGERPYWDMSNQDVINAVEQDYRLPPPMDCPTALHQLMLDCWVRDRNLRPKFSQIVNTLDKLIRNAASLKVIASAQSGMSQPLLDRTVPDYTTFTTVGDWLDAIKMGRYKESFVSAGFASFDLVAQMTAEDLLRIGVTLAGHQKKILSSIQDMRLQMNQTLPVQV
The following applies: cell material: Lysate mix. Summed up:
as §1

In a further assay the target is T3, UniProt P35626.
T3 sequence (whole entry): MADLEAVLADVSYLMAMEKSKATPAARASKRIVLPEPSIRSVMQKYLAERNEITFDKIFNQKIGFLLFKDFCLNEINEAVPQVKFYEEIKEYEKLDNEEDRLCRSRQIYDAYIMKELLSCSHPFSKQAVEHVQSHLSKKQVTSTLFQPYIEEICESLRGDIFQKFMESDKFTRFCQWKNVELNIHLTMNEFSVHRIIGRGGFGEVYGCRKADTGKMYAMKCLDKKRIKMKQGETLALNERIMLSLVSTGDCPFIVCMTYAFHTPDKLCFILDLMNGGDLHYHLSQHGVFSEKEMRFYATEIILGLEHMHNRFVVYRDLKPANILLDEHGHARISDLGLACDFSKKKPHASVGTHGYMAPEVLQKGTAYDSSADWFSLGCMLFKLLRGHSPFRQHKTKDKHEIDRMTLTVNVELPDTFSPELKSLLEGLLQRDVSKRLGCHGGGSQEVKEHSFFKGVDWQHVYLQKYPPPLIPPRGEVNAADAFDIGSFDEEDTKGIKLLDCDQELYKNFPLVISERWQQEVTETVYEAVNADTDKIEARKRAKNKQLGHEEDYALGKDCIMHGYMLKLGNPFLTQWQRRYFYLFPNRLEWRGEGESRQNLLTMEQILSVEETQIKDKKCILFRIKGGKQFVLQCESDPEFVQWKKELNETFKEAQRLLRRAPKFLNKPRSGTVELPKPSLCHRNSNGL
Summed up: as §1

The structures appear in SMILES notation. Some results are limits rather than exact numbers.

NEK7, sequence (Q8TDX7 whole entry, looked up): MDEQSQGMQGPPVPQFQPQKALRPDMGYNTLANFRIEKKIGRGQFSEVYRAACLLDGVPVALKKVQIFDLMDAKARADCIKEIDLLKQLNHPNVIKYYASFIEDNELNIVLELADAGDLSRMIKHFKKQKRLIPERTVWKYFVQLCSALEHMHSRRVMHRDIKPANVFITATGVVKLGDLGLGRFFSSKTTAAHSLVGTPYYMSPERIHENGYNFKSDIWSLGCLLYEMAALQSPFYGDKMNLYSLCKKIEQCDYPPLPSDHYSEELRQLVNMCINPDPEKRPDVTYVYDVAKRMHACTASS

As for `C#CCNC(=O)c1cc(Nc2cc(C)[nH]n2)nc(N2CCN(Cc3ccc(S(=O)(=O)F)cc3)CC2)n1`, the negative-log IC50 (pIC50) on UniProt P49840 (cell material: Lysate mix) was less than 4.52; at NEK7 (cell material: Lysate mix), less than 4.52; on MAP4K3 (cell material: Lysate mix) it was 4.65; on EPHB3 it was less than 4.52; on UniProt P35626 (cell material: Lysate mix), less than 4.52.

On to `O=C(NCCNC(=O)c1cc(Nc2cc(C3CC3)[nH]n2)nc(N2CCN(Cc3ccc(S(=O)(=O)F)cc3)CC2)n1)OC1CC/C=C/CCC1` (centres undefined), for which the pIC50 at UniProt P49840 (cell material: Jurkat cells) was less than 4.52; at UniProt P49840 (cell material: Jurkat lysate), less than 4.52; at UniProt P49840 (cell material: Lysate mix) it was less than 4.52; at NEK7 (cell material: Jurkat cells), 6.85; at NEK7 (cell material: Jurkat lysate), less than 4.52; on NEK7 (cell material: Lysate mix), less than 4.52. Moreover, the pIC50 was 5.15 at MAP4K3 (cell material: Jurkat cells); less than 4.52 at MAP4K3 (cell material: Jurkat lysate); less than 4.52 on MAP4K3 (cell material: Lysate mix); less than 4.52 at EPHB3; less than 4.52 at UniProt P35626 (cell material: Jurkat lysate); less than 4.52 at UniProt P35626 (cell material: Lysate mix).

As to `CCNC(=O)c1cc(Nc2cc(C3CC3)[nH]n2)nc(N2CCN(Cc3ccc(S(=O)(=O)F)cc3)CC2)n1`, the pIC50 was less than 4.52 on UniProt P49840 (cell material: Lysate mix); less than 4.52 on NEK7 (cell material: Lysate mix); 5.11 on MAP4K3 (cell material: Lysate mix); less than 4.52 on EPHB3; less than 4.52 on UniProt P35626 (cell material: Lysate mix).

For the molecule `Cc1cc(Nc2cc(C(=O)NCCNC(=O)OC3CC/C=C/CCC3)nc(N3CCN(Cc4ccc(S(=O)(=O)F)cc4)CC3)n2)n[nH]1` (centres undefined), the pIC50 at UniProt P49840 (cell material: Lysate mix), at NEK7 (cell material: Lysate mix), at MAP4K3 (cell material: Lysate mix), on EPHB3 and on UniProt P35626 (cell material: Lysate mix) was less than 4.52 throughout.

Consider `CCNC(=O)c1cc(Nc2cc(C)[nH]n2)nc(N2CCN(Cc3ccc(S(=O)(=O)F)cc3)CC2)n1`, for which the negative-log IC50 (pIC50) at UniProt P49840 (cell material: Lysate mix), on NEK7 (cell material: Lysate mix), on MAP4K3 (cell material: Lysate mix), at EPHB3 and at UniProt P35626 (cell material: Lysate mix) was less than 4.52 each time.

In the case of `C#CCNC(=O)c1cc(Nc2cc(C3CC3)[nH]n2)nc(N2CCN(Cc3ccc(S(=O)(=O)F)cc3)CC2)n1`, the negative-log IC50 (pIC50) on UniProt P49840 (cell material: Jurkat cells) is 5.04; on UniProt P49840 (cell material: Jurkat lysate), less than 4.52; on UniProt P49840 (cell material: Lysate mix), less than 4.52; on NEK7 (cell material: Jurkat cells) it was 6.88; on NEK7 (cell material: Jurkat lysate), less than 4.52; on NEK7 (cell material: Lysate mix), less than 4.52. The pIC50 was 6.02 at MAP4K3 (cell material: Jurkat cells); 4.77 at MAP4K3 (cell material: Jurkat lysate); 5.43 on MAP4K3 (cell material: Lysate mix); less than 4.52 at EPHB3; 5.77 on UniProt P35626 (cell material: Jurkat cells); less than 4.52 on UniProt P35626 (cell material: Jurkat lysate).
